≈ marks a conversion by molar mass, not a printed value.
How the values were obtained:
Type in all cases: cell-based
[1] = tested on: Micrococcus luteus ATCC 9341; assay: Antibacterial activity, agar-dilution MIC, organism No. 25; details: Micrococcus luteus, ATCC9341; Organism No. 25, bouillon-agar; read-out: Minimum Inhibitory Concentration
Text: (§1) Agar-dilution method was used for determination of the antibacterial activity and antifungal activity while using bouillon-agar culture medium, and the minimum inhibitory concentration of the specimen was expressed by μg/ml of the culture medium.

[2] = tested on: Streptococcus faecium IFO 3826; assay: Antibacterial activity, agar-dilution MIC, organism No. 27; details: Enterococcus faecium, IFO3826; Organism No. 27, bouillon-agar; read-out: Minimum Inhibitory Concentration
Text: as §1

[3] = tested on: Salmonella enteritidis G 14; assay: Antibacterial activity, agar-dilution MIC, organism No. 12; details: Salmonella enterica, ENTERITIDIS; Organism No. 12, bouillon-agar; read-out: Minimum Inhibitory Concentration
Text: as §1

[4] = tested on: Aspergillus niger IFO 6342; assay: Antifungal activity, agar-dilution MIC, organism No. 30; details: Aspergillus niger, IFO6342; Organism No. 30, bouillon-agar; read-out: Minimum Inhibitory Concentration
Text: as §1

[5] = tested on: Proteus vulgaris OX-19; assay: Antibacterial activity, agar-dilution MIC, organism No. 20; details: Proteus vulgaris, OX19; Organism No. 20, bouillon-agar; read-out: Minimum Inhibitory Concentration
Text: as §1

[6] = tested on: Enterobacter cloacae 963; assay: Antibacterial activity, agar-dilution MIC, organism No. 24; details: Enterobacter cloacae, 963; Organism No. 24, bouillon-agar; read-out: Minimum Inhibitory Concentration
Text: as §1

[7] = tested on: Staphylococcus aureus Terajima; assay: Antibacterial activity, agar-dilution MIC, organism No. 2; details: Staphylococcus aureus; Organism No. 2, bouillon-agar; read-out: Minimum Inhibitory Concentration
Text: as §1

[8] = tested on: Proteus vulgaris HX-19; assay: Antibacterial activity, agar-dilution MIC, organism No. 21; details: Proteus vulgaris, HX19; Organism No. 21, bouillon-agar; read-out: Minimum Inhibitory Concentration
Text: as §1

[9] = tested on: Mycoplasma pneumoniae IID817; assay: Antimycoplasmal activity, MIC by phenol red colour change, organism No. 28; details: Mycoplasma, IID817; Organism No. 28, PPLO broth + 1% glucose, 37° C.; read-out: Minimum Inhibitory Concentration (MIC)
Description: Mycoplasma pneumoniae IID817 was used as the test microorganism in a culture medium prepared by adding 1% of glucose to "PPLO broth (manufactured by Difco Co.) liquid culture medium" at 37° C. with phenol red as an indicator, thereby culturing the test microorganism.

[10] = tested on: Staphylococcus aureus MS 353; assay: Antibacterial activity, agar-dilution MIC, organism No. 3; details: Staphylococcus aureus, MS353; Organism No. 3, bouillon-agar; read-out: Minimum Inhibitory Concentration
Text: as §1

[11] = tested on: Salmonella paratyphi-A 1015; assay: Antibacterial activity, agar-dilution MIC, organism No. 10; details: Salmonella enterica, PARATYPHI, read-out: Minimum Inhibitory Concentration
Text: as §1

[12] = tested on: Enterobacter aerogenes ATCC 13048; assay: Antibacterial activity, agar-dilution MIC, organism No. 23; details: Klebsiella aerogenes, ATCC13048; Organism No. 23, bouillon-agar; read-out: Minimum Inhibitory Concentration
Text: as §1

[13] = tested on: Pseudomonas aeruginosa IFO 3445; assay: Antibacterial activity, agar-dilution MIC, organism No. 15; details: Pseudomonas aeruginosa, IFO3445; Organism No. 15, bouillon-agar; read-out: Minimum Inhibitory Concentration
Text: as §1

[14] = tested on: Proteus rettgeri IFO 3850; assay: Antibacterial activity, agar-dilution MIC, organism No. 22; details: Providencia rettgeri, IFO3850; Organism No. 22, bouillon-agar; read-out: Minimum Inhibitory Concentration
Text: as §1

[15] = tested on: Proteus morganii IFO 3848; assay: Antibacterial activity, agar-dilution MIC, organism No. 18; details: Morganella morganii, IFO3848; Organism No. 18, bouillon-agar; read-out: Minimum Inhibitory Concentration
Text: as §1

[16] = tested on: Klebsiella pneumoniae PCI-602; assay: Antibacterial activity, agar-dilution MIC, organism No. 7; details: Klebsiella pneumoniae, PCI602; Organism No. 7, bouillon-agar; read-out: Minimum Inhibitory Concentration
Text: as §1

[17] = tested on: Staphylococcus aureus FDA 209PJc-1; assay: Antibacterial activity, agar-dilution MIC, organism No. 1; details: Staphylococcus aureus, FDA209PJC1; Organism No. 1, bouillon-agar; read-out: Minimum Inhibitory Concentration
Text: as §1

[18] = tested on: Proteus mirabilis IFO 3849; assay: Antibacterial activity, agar-dilution MIC, organism No. 19; details: Proteus mirabilis, IFO3849; Organism No. 19, bouillon-agar; read-out: Minimum Inhibitory Concentration
Text: as §1

[19] = tested on: Candida albicans IAM 4905; assay: Antifungal activity, agar-dilution MIC, organism No. 29; details: Candida albicans, IAM4905; Organism No. 29, bouillon-agar; read-out: Minimum Inhibitory Concentration
Text: as §1

[20] = tested on: Bacillus subtilis ATCC 6633; assay: Antibacterial activity, agar-dilution MIC, organism No. 14; details: Bacillus subtilis, ATCC6633; Organism No. 14, bouillon-agar; read-out: Minimum Inhibitory Concentration
Text: as §1

[21] = tested on: Pseudomonas aeruginosa NCTC 10490; assay: Antibacterial activity, agar-dilution MIC, organism No. 16; details: Pseudomonas aeruginosa, NCTC10490; Organism No. 16, bouillon-agar; read-out: Minimum Inhibitory Concentration
Text: as §1

[22] = tested on: Streptococcus pyogenes IFO 3340; assay: Antibacterial activity, agar-dilution MIC, organism No. 26; details: Streptococcus pyogenes, IFO3340; Organism No. 26, bouillon-agar; read-out: Minimum Inhibitory Concentration
Text: as §1

[23] = tested on: Escherichia coli K12 C600 IAM 1264; assay: Antibacterial activity, agar-dilution MIC, organism No. 6; details: Escherichia coli, IAM1264; Organism No. 6, bouillon-agar; read-out: Minimum Inhibitory Concentration
Text: as §1

[24] = tested on: Escherichia coli NIHJ-JC-2; assay: Antibacterial activity, agar-dilution MIC, organism No. 5; details: Escherichia coli, NIHJJC2; Organism No. 5, bouillon-agar; read-out: Minimum Inhibitory Concentration
Text: as §1

[25] = tested on: Salmonella typhi 901; assay: Antibacterial activity, agar-dilution MIC, organism No. 9; details: Salmonella enterica, TYPHI, read-out: Minimum Inhibitory Concentration
Text: as §1

[26] = tested on: Pseudomonas aeruginosa PAO 1; assay: Antibacterial activity, agar-dilution MIC, organism No. 17; details: Pseudomonas aeruginosa, PAO1; Organism No. 17, bouillon-agar; read-out: Minimum Inhibitory Concentration
Text: as §1

[27] = tested on: Salmonella typhimurium IID 971; assay: Antibacterial activity, agar-dilution MIC, organism No. 8; details: Salmonella enterica; Organism No. 8, bouillon-agar; read-out: Minimum Inhibitory Concentration
Text: as §1

[28] = tested on: Salmonella shottmuelleri 8006; assay: Antibacterial activity, agar-dilution MIC, organism No. 11; details: Salmonella, 8006; Organism No. 11, bouillon-agar; read-out: Minimum Inhibitory Concentration
Text: as §1

[29] = tested on: Streptococcus pyogenes Cook; assay: Antibacterial activity, agar-dilution MIC, organism No. 4; details: Streptococcus pyogenes; Organism No. 4, bouillon-agar; read-out: Minimum Inhibitory Concentration
Text: as §1

| SMILES | MIC [1] [µg/mL] | MIC [2] [µg/mL] | MIC [3] [µg/mL] | MIC [4] [µg/mL] | MIC [5] [µg/mL] | MIC [6] [µg/mL] | MIC [7] [µg/mL] | MIC [8] [µg/mL] | MIC [9] [µg/mL] | MIC [10] [µg/mL] | MIC [11] [µg/mL] | MIC [12] [µg/mL] | MIC [13] [µg/mL] | MIC [14] [µg/mL] | MIC [15] [µg/mL] | MIC [16] [µg/mL] | MIC [17] [µg/mL] | MIC [18] [µg/mL] | MIC [19] [µg/mL] | MIC [20] [µg/mL] | also measured |
| --- | --- | --- | --- | --- | --- | --- | --- | --- | --- | --- | --- | --- | --- | --- | --- | --- | --- | --- | --- | --- | --- |
| [C-]#[N+]C12CC3(/C=C/C(=O)Nc4ccc(C)cc4)OC3C1O2 (centres unmarked) [compound 37] | < 0.05 | 25 (≈ 88.6 µM) | 1.56 (≈ 5.53 µM) | 1.56 (≈ 5.53 µM) | 0.2 (≈ 0.708 µM) | 50 (≈ 177 µM) | 1.56 (≈ 5.53 µM) | < 0.05 | 0.2 | 0.39 (≈ 1.38 µM) | 0.2 (≈ 0.708 µM) | 100 (≈ 354 µM) | > 200 | 3.13 (≈ 11.1 µM) | 12.5 (≈ 44.3 µM) | 0.1 (≈ 0.354 µM) | 0.39 (≈ 1.38 µM) | 200 (≈ 708 µM) | 0.39 (≈ 1.38 µM) | 6.25 (≈ 22.1 µM) | MIC [21]: > 200 µg/mL; MIC [22]: 1.56 µg/mL (≈ 5.53 µM); MIC [23]: 25 µg/mL (≈ 88.6 µM); MIC [24]: 25 µg/mL (≈ 88.6 µM); MIC [25]: 1.56 µg/mL (≈ 5.53 µM); MIC [26]: > 200 µg/mL; MIC [27]: 6.25 µg/mL (≈ 22.1 µM); MIC [28]: 0.2 µg/mL (≈ 0.708 µM); MIC [29]: 12.5 µg/mL (≈ 44.3 µM) |
| [C-]#[N+]C12CC3(/C=C/C(=O)NC4C(=O)N5C4SC(C)(C)C5C(=O)OCC(=O)c4ccc(Br)cc4)OC3C1O2 (centres unmarked) [Compound No. 33] | 3.13 (≈ 5.32 µM) | 0.8 (≈ 1.36 µM) | 1.56 (≈ 2.65 µM) | 3.13 (≈ 5.32 µM) | 100 (≈ 170 µM) | 25 (≈ 42.5 µM) | 0.78 (≈ 1.33 µM) | 1.56 (≈ 2.65 µM) | < 0.2 | 1.56 (≈ 2.65 µM) | 0.38 (≈ 0.646 µM) | > 100 | > 200 | > 100 | > 200 | 25 (≈ 42.5 µM) | 1.56 (≈ 2.65 µM) | > 200 | 1.56 (≈ 2.65 µM) | 0.78 (≈ 1.33 µM) | MIC [21]: > 200 µg/mL; MIC [22]: 0.8 µg/mL (≈ 1.36 µM); MIC [23]: 25 µg/mL (≈ 42.5 µM); MIC [24]: 25 µg/mL (≈ 42.5 µM); MIC [25]: 3.13 µg/mL (≈ 5.32 µM); MIC [26]: > 200 µg/mL; MIC [27]: 12.5 µg/mL (≈ 21.2 µM); MIC [28]: 0.38 µg/mL (≈ 0.646 µM); MIC [29]: 0.78 µg/mL (≈ 1.33 µM) |
| [C-]#[N+]C12CC3(/C=C/C(=O)N[C@@H](CCC(=O)OCc4ccccc4)C(=O)OCc4ccccc4)OC3C1O2 (some centres unmarked) [Compound No. 28] | < 1.56 | 0.5 (≈ 0.995 µM) | > 200 | > 100 | > 200 | > 200 | 12.5 (≈ 24.9 µM) | 25 (≈ 49.7 µM) | > 100 | 12.5 (≈ 24.9 µM) | > 200 | > 200 | > 200 | > 200 | > 200 | > 200 | 12.5 (≈ 24.9 µM) | > 200 | > 100 | < 1.56 | MIC [21]: > 200 µg/mL; MIC [22]: > 200 µg/mL; MIC [23]: > 200 µg/mL; MIC [24]: > 200 µg/mL; MIC [25]: > 200 µg/mL; MIC [26]: > 200 µg/mL; MIC [27]: > 200 µg/mL; MIC [28]: > 200 µg/mL; MIC [29]: > 200 µg/mL |
| [C-]#[N+]C12CC3(/C=C/C(=O)Nc4ccccc4C)OC3C1O2 (centres unmarked) [compound 39] | < 0.05 | 200 (≈ 708 µM) | 50 (≈ 177 µM) | 1.56 (≈ 5.53 µM) | 6.25 (≈ 22.1 µM) | 200 (≈ 708 µM) | 3.13 (≈ 11.1 µM) | < 0.05 | < 0.2 | 1.56 (≈ 5.53 µM) | 12.5 (≈ 44.3 µM) | > 200 | > 200 | > 200 | 100 (≈ 354 µM) | 1.56 (≈ 5.53 µM) | 0.78 (≈ 2.76 µM) | > 200 | 0.39 (≈ 1.38 µM) | > 200 | MIC [21]: > 200 µg/mL; MIC [22]: 25 µg/mL (≈ 88.6 µM); MIC [23]: > 200 µg/mL; MIC [24]: > 200 µg/mL; MIC [25]: 25 µg/mL (≈ 88.6 µM); MIC [26]: > 200 µg/mL; MIC [27]: > 200 µg/mL; MIC [28]: 3.13 µg/mL (≈ 11.1 µM); MIC [29]: 100 µg/mL (≈ 354 µM) |

— US4684664A, “Derivatives of β-(4-isocyano-1,2,3,4-diepoxycyclopentyl) acrylic acid” (Kureha Kagaku Kogyo Kabushiki Kaisha, priority 1984, dated 1987)
